Experimental data published in ChEMBL document CHEMBL5230118, “Therapeutic potential of uracil and its derivatives in countering pathogenic and physiological disorders” (Eur J Med Chem, 2020).

Tests used:
[1] = in vivo; conditions: mouse
[2] = Bioavailability in human; type: ADME, organism-based; conditions: in vivo
[3] = tested on: Human alphaherpesvirus 3; assay: Antiviral activity against clinical isolate VZV; type: functional, organism-based
[4] = tested on: DLD-1; assay: Antiproliferative activity against human DLD-1 cells assessed as cell growth inhibition; type: functional, cell-based
[5] = tested on: COLO-320-HSR; assay: Antiproliferative activity against human COLO 320HSR cells assessed as cell growth inhibition; type: functional, cell-based
[6] = tested on: HT-29; assay: Antiproliferative activity against human HT-29 cells assessed as cell growth inhibition; type: functional, cell-based

For `O=c1[nH]cc(F)c(=O)[nH]1` [FLUOROURACIL], the half-life [1] was 16 min.

Work on `Cn1c(=O)cc(N2CCC[C@@H](N)C2)n(Cc2ccccc2C#N)c1=O` [ALOGLIPTIN] yielded a bioavailability [2] of 75%.

With `CC#Cc1cn([C@@H]2O[C@H](CO)[C@@H](O)[C@@H]2O)c(=O)[nH]c1=O` [NETIVUDINE] the IC50 [3] was 1000 nM and the bioavailability [2] was 25%.

`O=c1[nH]c(=O)n([C@@H]2O[C@H](CO)[C@@H](O)[C@@H]2O)cc1F` gave an IC50 [4] of 52 nM, an IC50 [5] of 23 nM and an IC50 [6] of 41 nM.
